Reference: patent US20250296922A1, “POLYSUBSTITUTED PYRROLIDINE DERIVATIVE, PREPARATION METHOD THEREFOR AND USE THEREOF” (SHANGHAI WENNAI THERAPEUTICS CO LTD, priority 2023, published 2025)
Like-named read-outs stand apart in the source and are kept apart here.

Columns and labels:
CYP3A-M = CYP3A-M (Homo sapiens, UniProt P08684); assay: Human liver microsomal CYP inhibition test, CYP3A-M (midazolam); assay type: in vitro ADME; details: human liver microsomes 0.2 mg/mL; substrate Midazolam
Description: (§1) 3.1 Buffer solutions: (1) potassium phosphate 100 mM; (2) magnesium chloride, 33 mM;
(§2) 3.2.3 Reservoir for compounds to be tested: Dissolving the compounds to be tested in DMSO to form a 10 mM DMSO solution.
(§3) 3.4.1 Preparation of human liver microsomal working solution (1.27×) (final concentration: 0.2 mg/mL)
(§4) 3.5.3 Adding 20 μL of substrate solution to the appropriate wells and 20 μL of potassium phosphate buffer to the blank wells;
(§5) 3.5.4 Adding 2 μL of different concentrations of target compounds (final concentrations from 0.05 μM to 50 μM, 7 concentrations in total) or standard inhibitors to each well, with 2 μL of methanol solution in the non-inhibitor and blank wells;
(§6) 3.5.5 Adding 1.012 mL of liver microsomes to 78.988 mL of potassium phosphate buffer, then adding 158 μL of liver microsomes solution to all wells; preheating the well plate for 10 minutes in a 37° C. water bath;
(§7) 3.5.6 Weighing 129.1 mg NADPH (purchased from SyncoZymes Co. Ltd.) and adding to 15.0 mL of 33 Mm MgCl2 solution to give a 10 mM concentration, adding 20 μL to each well;
(§8) 3.5.7 Mixing and incubating the well plate in a 37° C. water bath for 10 minutes, then adding 400 μL of cold termination solution at the appropriate time point;
(§9) 3.5.8 Centrifuging the sample at 4000 rpm for 20 minutes to precipitate the protein. Transferring 200 μL of supernatant to 100 μL of HPLC water and shaking for 10 minutes. The samples were analyzed by LC/MS/MS;
(§10) Percentage inhibition was plotted for blank control and different concentrations of target compounds by using XL fitting or SigmaPlot and the data were analyzed by non-linear regression. IC50 values were determined by using either 3-parameter or 4-parameter logistic equations.

[1] = Pharmacokinetic experiment, rat test, gavage administration; assay type: in vivo, SD rats; details: 10 mg/kg; for AUC(0-t) / Cmax: Sprague-Dawley, rat, plasma, po; for AUC(0-t): read-out: Area under the curve AUC0-t; for Cmax: read-out: blood concentration Cmax
Excerpt: 4.1.1 Abstract: SD rats were used as test animals, the LC/MS/MS method was applied to determine the drug concentration of the compounds of the Examples in plasma at different points after gavage administration to rats, to study the pharmacokinetic behavior of the compounds of the present invention in rats, and to evaluate their pharmacokinetic characteristics.
4.1.2.2 Test animals: 6 male SD rats and 6 female rats, all provided by Shanghai Jihui Laboratory Animal Breeding Co. The animals were fasted for at least 12 hours before administration and food supply was resumed 4 hours after administration.
4.1.2.3 Drug Preparation: Weighed an amount of the test compound separately and prepared a completely clear solution with a final concentration of 1 mg/mL using a mixed solvent of DMSO: Solutol: Saline (5%: 5%: 90%).
4.1.2.4 Administration: a dose of 10 mg/kg, a volume of 10 mL/kg.
4.1.3 Test operation: 0.1 mL blood samples were collected from the orbit before and 15 min, 30 min, 1 h, 2h, 4 h, 6h, 8 h, 10h, 24 h after the administration of the drug to male rats and placed in EDTA-K2 anticoagulant tubes. 0.03 mL blood samples were collected from the orbit before and 0.5h, 1 h, 2h, 3 h, 6h, 10 h and 24 h after administration to female rats. After blood samples were collected, they were placed in labelled centrifuge tubes in ice-water bath and rapidly centrifuged to separate the plasma at 4000 rpm for 10 min at 4° C. The plasma was stored at −70° C. or below for measurement.
The plasma samples were thawed at room temperature and 50 μL was added to 400 μL of acetonitrile containing the internal standard (40 ng/mL, terfenadine), vortexed for 1 min and centrifuged for 10 min at 4° C. and 15,400 g. 1 μL of the supernatant was injected for analysis.

[2] = Proportion of free drug in human plasma, equilibrium dialysis; assay type: in vitro ADME; details: 2 μM compound, dialysis 4 h, 37° C.
Description: On the day of the experiment, human plasma samples (purchased from Biomex) were thawed under running tap water and centrifuged at 3220 g for 5 min to remove blood clots. The pH of the resulting plasma was measured and adjusted to pH 7.4+0.1 by using 1% phosphoric acid or 1 N sodium hydroxide as required.
Pretreating the dialysis membranes according to the manufacturer's instructions: The dialysis membrane strips were soaked in ultrapure water at room temperature for approximately 1 hour. Afterwards, each membrane strip containing 2 layers of membrane was separated and soaked in ethanol: water (20:80 v: v) for approximately 20 minutes, then it was ready for use or stored at 2-8° C. (stored for up to 1 month). The membranes were rinsed and soaked in ultrapure water for 20 min before experiments.
A 10 mM DMSO solution of test compound or control warfarin was taken and diluted to 400 μM with DMSO, then 3 μl was taken and added to 597 μl of blank plasma matrix solution to obtain 2 μM of compound solution respectively. 50 μl of test compound solution or control solution was transferred to a sample collection plate with 3 replicate wells per sample. […]
Unbonded %, bonded % and recovered % were calculated using the following formulae. […]

CYP3A (printed CYP3A-M) = CYP3A (printed CYP3A-M) (Homo sapiens, UniProt P08684); assay: Human liver microsomal CYP inhibition test, CYP3A-M (midazolam); assay type: in vitro ADME
Description: as §1, §2, §3, §4, §5, §6, §7, §8, §9, §10

CYP3A (printed CYP3A-M), sequence (P08684 2-503 limits assumed): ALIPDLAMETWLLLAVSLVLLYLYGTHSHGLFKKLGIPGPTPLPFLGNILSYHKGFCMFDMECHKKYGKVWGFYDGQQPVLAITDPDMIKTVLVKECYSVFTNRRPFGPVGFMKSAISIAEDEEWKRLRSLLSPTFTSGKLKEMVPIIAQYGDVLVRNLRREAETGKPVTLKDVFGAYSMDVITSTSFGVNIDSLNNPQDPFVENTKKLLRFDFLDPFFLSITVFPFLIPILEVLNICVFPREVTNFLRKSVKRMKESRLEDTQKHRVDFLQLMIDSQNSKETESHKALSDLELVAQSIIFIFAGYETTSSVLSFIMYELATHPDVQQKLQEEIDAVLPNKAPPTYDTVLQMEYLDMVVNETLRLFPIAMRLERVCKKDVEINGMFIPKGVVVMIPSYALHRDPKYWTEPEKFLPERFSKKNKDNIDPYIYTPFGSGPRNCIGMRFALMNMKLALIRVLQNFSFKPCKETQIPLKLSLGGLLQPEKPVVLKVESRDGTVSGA
CYP3A-M, sequence (P08684 2-503 limits assumed): as above

With “4-((2R,3S,4S,5R)-3-(3,4-difluoro-2-(methoxy-d3)phenyl)-4,5-dimethyl-5-(trifluoromethyl) pyrrolidine-2-carboxamido)pyridinamide [Compound 11]” the IC50 (CYP3A-M) was over 50 µM, the “Area under the curve AUC0-t” value ([1]; female SD rats) was 23809 ng·h/mL and the “blood concentration Cmax” value ([1]; female SD rats) was 1850 ng/mL. The “Area under the curve AUC0-t” value ([1]; male SD rats) was 4656 ng·h/mL, the “blood concentration Cmax” value ([1]; male SD rats) was 1006 ng/mL and the “free drug proportion of in human plasma” value [2] was 1.6%.
`COc1c([C@H]2[C@H](C(=O)Nc3ccc[n+]([O-])c3)N[C@@](C)(C(F)(F)F)[C@H]2C)ccc(F)c1F` [Compound 7, 3-((2R,3S,4S,5R)-3-(3,4-difluoro-2-methoxyphenyl)-4,5-dimethyl-5-(trifluoromethyl)pyrrolidine-2-carboxamido)pyridine 1-oxide] gave an IC50 at 10 min (CYP3A (printed CYP3A-M); probe Midazolam, human liver microsomes 0.2 mg/mL, substrate Midazolam, read-out: IC50 (μM) CYP3A-M) of 30.9 µM.
With `COc1c([C@H]2[C@H](C(=O)Nc3cccc(S(N)(=O)=O)c3)N[C@@](C)(C(F)(F)F)[C@H]2C)ccc(F)c1F` [Compound 8, (2R,3S,4S,5R)-3-(3,4-difluoro-2-methoxyphenyl)-4,5-dimethyl-aza-(3-aminosulfonylphenyl)-5-(trifluoromethyl) pyrrolidine-2-carboxamide] the IC50 (CYP3A-M) was 26.2 µM.
`COc1c([C@H]2[C@H](C(=O)Nc3ccnc(C(N)=O)c3)O[C@@](C)(C(F)(F)F)[C@H]2C)ccc(F)c1F` [VX-548, reference compound] showed an IC50 at 10 min (CYP3A (printed CYP3A-M); human, microsomes) of over 50 µM, an AUC(0-t) ([1]; female SD rats) of 10900 ng·h/mL and a Cmax ([1]; female SD rats) of 719 ng/mL. The AUC(0-t) ([1]; male SD rats) was 1210 ng·h/mL, the Cmax ([1]; male SD rats) was 385 ng/mL and the “free drug proportion of in human plasma” value [2] was 1.0%.
